Results on 42 molecules are retold here after ChEMBL document CHEMBL1140637, “QSAR modeling of matrix metalloproteinase inhibition by N-hydroxy-alpha-phenylsulfonylacetamide derivatives” (Bioorg Med Chem, 2007).

Experiment [1] deals with T1, Interstitial collagenase (Homo sapiens) (UniProt P03956).
T1 sequence (whole entry): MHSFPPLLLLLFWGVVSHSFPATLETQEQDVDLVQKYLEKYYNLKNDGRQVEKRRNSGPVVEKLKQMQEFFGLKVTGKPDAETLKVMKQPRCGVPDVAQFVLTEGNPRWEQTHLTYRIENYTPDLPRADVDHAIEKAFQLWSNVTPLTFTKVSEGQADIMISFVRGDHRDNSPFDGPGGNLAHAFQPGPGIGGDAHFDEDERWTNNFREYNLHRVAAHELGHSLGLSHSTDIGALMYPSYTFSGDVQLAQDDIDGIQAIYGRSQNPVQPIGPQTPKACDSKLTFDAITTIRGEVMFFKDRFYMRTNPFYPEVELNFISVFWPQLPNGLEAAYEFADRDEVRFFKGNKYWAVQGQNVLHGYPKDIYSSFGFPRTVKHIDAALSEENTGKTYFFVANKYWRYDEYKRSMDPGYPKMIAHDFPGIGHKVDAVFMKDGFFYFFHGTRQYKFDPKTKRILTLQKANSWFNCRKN
The experiment can be described thus: Inhibition of MMP1.

For experiment [2], the target named is Matrix metalloproteinase-9 (Homo sapiens) (UniProt P14780). Kind of experiment: Inhibition of MMP9.
Matrix metalloproteinase-9 (Homo sapiens), sequence (P14780 whole entry): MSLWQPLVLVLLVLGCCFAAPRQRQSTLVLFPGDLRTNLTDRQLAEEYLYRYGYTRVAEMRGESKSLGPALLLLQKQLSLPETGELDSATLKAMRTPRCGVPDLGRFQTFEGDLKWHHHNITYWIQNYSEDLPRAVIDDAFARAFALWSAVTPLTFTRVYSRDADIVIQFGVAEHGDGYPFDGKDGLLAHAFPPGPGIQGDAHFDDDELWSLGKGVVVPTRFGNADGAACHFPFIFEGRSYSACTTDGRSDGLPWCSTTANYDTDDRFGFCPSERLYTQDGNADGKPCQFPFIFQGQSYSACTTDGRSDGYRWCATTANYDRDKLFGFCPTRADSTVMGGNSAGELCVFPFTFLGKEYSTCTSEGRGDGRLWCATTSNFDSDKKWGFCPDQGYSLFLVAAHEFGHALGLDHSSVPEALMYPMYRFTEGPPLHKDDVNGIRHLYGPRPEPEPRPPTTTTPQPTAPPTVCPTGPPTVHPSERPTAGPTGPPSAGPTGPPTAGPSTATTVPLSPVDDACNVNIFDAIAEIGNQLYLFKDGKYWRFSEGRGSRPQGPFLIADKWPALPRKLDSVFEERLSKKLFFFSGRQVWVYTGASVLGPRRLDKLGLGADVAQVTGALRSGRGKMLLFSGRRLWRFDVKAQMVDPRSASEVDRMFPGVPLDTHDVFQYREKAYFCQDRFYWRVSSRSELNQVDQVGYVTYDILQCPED
Experiment [3] concerns the target Collagenase 3 (Homo sapiens) (UniProt P45452).

Consider `CCCCOc1ccc(S(=O)(=O)C2(C(=O)NO)CCN(CCCOc3ccccc3)CC2)cc1`, for which the figures for the log(10^6/IC50) in experiment [1] and in experiment [2] were 2.42 and 5.3, respectively.

Take `COc1ccc(S(=O)(=O)C2(C(=O)NO)CCN(Cc3ccc(F)cc3)CC2)cc1`: the log(10^6/IC50) in experiment [3] was determined as 5.7; in experiment [1], 3.18; in experiment [2], 4.8.

For the molecule `CCCCN1CCC(C(=O)NO)(S(=O)(=O)c2ccc(Oc3ccc(Cl)cc3)cc2)CC1`, the log(10^6/IC50) in experiment [3] stood at 6; in experiment [1] it was 2.97; in experiment [2] it was 6.

With `CCCCOc1ccc(S(=O)(=O)C2(C(=O)NO)CCN(CCCC)CC2)cc1`, the log(10^6/IC50) worked out at 5.7 in experiment [3] and 4.55 in experiment [2].

As to `CCCCOc1ccc(S(=O)(=O)C2(C(=O)NO)CCN(CC)CC2)cc1`, the log(10^6/IC50) in experiment [3] stood at 5.7; in experiment [1] it was 2.15; in experiment [2], 4.37.

For the molecule `CCN1CCC(C(=O)NO)(S(=O)(=O)c2ccc(Oc3ccc(Cl)cc3)cc2)CC1`, the log(10^6/IC50) in experiment [3] was determined as 6; in experiment [1], 2.76; in experiment [2], 6.

With `COc1ccc(S(=O)(=O)[C@](C)(Cc2ccc(OCCCN3CCN(c4cccc(Cl)c4)CC3)cc2)C(=O)NO)cc1`, the log(10^6/IC50) came to 5.4 in experiment [3], 3.23 in experiment [1] and 5.15 in experiment [2].

For `COc1ccc(S(=O)(=O)C(C)(Cc2ccc(-c3ccccc3)cc2)C(=O)NO)cc1` (stereo unspecified), the log(10^6/IC50) was found to be 3.8 in experiment [1] and 4.64 in experiment [2].

For the molecule `CCCCOc1ccc(S(=O)(=O)C2(C(=O)NO)CCN(C)CC2)cc1`, the log(10^6/IC50) turned out to be 5.7 in experiment [3], 2.47 in experiment [1] and 5 in experiment [2].

Take `O=C(NO)C1(S(=O)(=O)c2ccc(Oc3ccc(Cl)cc3)cc2)CCNCC1`: the log(10^6/IC50) in experiment [3] stood at 5.7; in experiment [1] it was 2.9; in experiment [2], 5.7.

In the case of `O=C(NO)C1(S(=O)(=O)c2ccc(Oc3ccc(Cl)cc3)cc2)CCN(Cc2ccccc2)CC1`, the figures for the log(10^6/IC50) in experiment [3], in experiment [1] and in experiment [2] were 6, 3.1 and 6, respectively.

Turning to `C=C(C)[C@@](C)(C(=O)NO)S(=O)(=O)c1ccc(OC)cc1`, the log(10^6/IC50) in experiment [3] stood at 4.85; in experiment [1] it was 3.62; in experiment [2], 4.96.

Regarding `CCCCOc1ccc(S(=O)(=O)C2(C(=O)NO)CCN(Cc3cccc(OC)c3)CC2)cc1`, the results for the log(10^6/IC50) in experiment [1] and in experiment [2] were 2.82 and 5.52, respectively.

As to `COc1ccc(S(=O)(=O)C2(C(=O)NO)CCN(CCOc3ccccc3)CC2)cc1`, the log(10^6/IC50) is 5.52 in experiment [3], 3.2 in experiment [1] and 4.59 in experiment [2].

As to `CCCCOc1ccc(S(=O)(=O)C2(C(=O)NO)CCN(Cc3ccc(Cl)c(Cl)c3)CC2)cc1`, the log(10^6/IC50) in experiment [3] was 5.3; in experiment [1], 2.44; in experiment [2], 4.7.

Take `COc1ccc(S(=O)(=O)C2(C(=O)NO)CCN(C(C)C)CC2)cc1`: the log(10^6/IC50) turned out to be 4.47 in experiment [3], 2.35 in experiment [1] and 3.43 in experiment [2].

As for `COc1ccc(S(=O)(=O)C2(C(=O)NO)CCN(Cc3ccc(-c4ccccn4)cc3)CC2)cc1`, the log(10^6/IC50) in experiment [1] stood at 3.37; in experiment [2], 5.22.

As for `COc1ccc(S(=O)(=O)C2(C(=O)NO)CCN(Cc3ccc(Cl)c(Cl)c3)CC2)cc1`, the log(10^6/IC50) in experiment [3] came to 5.7; in experiment [1] it was 3.35; in experiment [2] it was 5.22.

Turning to `COc1ccc(S(=O)(=O)C2(C(=O)NO)CCN(C(C)(C)C)CC2)cc1`, the log(10^6/IC50) in experiment [3] came out at 3.83; in experiment [2] it was 3.19.

On to `COc1ccc(S(=O)(=O)C2(C(=O)NO)CCN(Cc3ccc(OCCN4CCCCC4)cc3)CC2)cc1`, for which the log(10^6/IC50) amounted to 5.52 in experiment [3], 3.41 in experiment [1] and 5.52 in experiment [2].

With `COc1ccc(S(=O)(=O)C2(C(=O)NO)CCN(CCCOc3ccccc3)CC2)cc1`, the log(10^6/IC50) in experiment [3] turned out to be 5.4; in experiment [1], 2.92; in experiment [2], 4.36.

In the case of `COc1ccc(S(=O)(=O)C(C)(C/C=C/c2ccccc2)C(=O)NO)cc1` (stereo unspecified), the log(10^6/IC50) in experiment [3] was found to be 4.92; in experiment [1], 3.52; in experiment [2], 4.8.

Consider `O=C(NO)C1(S(=O)(=O)c2ccc(-c3ccco3)cc2)CCN(Cc2ccccc2)CC1`, for which the results for the log(10^6/IC50) in experiment [1] and in experiment [2] were 4.4 and 5.52, respectively.

Turning to `COc1ccc(S(=O)(=O)C2(C(=O)NO)CCN(Cc3ccc(-c4cccs4)cc3)CC2)cc1`, the log(10^6/IC50) in experiment [3] turned out to be 5.52; in experiment [1] it was 3.27; in experiment [2], 4.96.

For the molecule `CCN(CC)CCOc1ccc(CC(C)(C(=O)NO)S(=O)(=O)c2ccc(OC)cc2)cc1` (single isomer, unassigned), the log(10^6/IC50) in experiment [3] was found to be 4.82; in experiment [1], 3.5; in experiment [2], 4.89.

As for `CCCCOc1ccc(S(=O)(=O)C2(C(=O)NO)CCN(CCOc3ccccc3)CC2)cc1`, the results for the log(10^6/IC50) in experiment [1] and in experiment [2] were 2.54 and 5.3, respectively.

For `COc1ccc(S(=O)(=O)[C@](C)(Cc2ccc(OCCN3CCCCC3)cc2)C(=O)NO)cc1`, the log(10^6/IC50) was determined as 3.62 in experiment [1] and 5.05 in experiment [2].

On to `C=C(C)N1CCC(C(=O)NO)(S(=O)(=O)c2ccc(OC)cc2)CC1`, for which the log(10^6/IC50) stood at 5.15 in experiment [3], 2.86 in experiment [1] and 4.41 in experiment [2].

Turning to `COc1ccc(S(=O)(=O)C2(C(=O)NO)CCN(Cc3ccccc3)CC2)cc1`, the figures for the log(10^6/IC50) in experiment [3], in experiment [1] and in experiment [2] were 5.7, 3.31 and 5, respectively.

For the molecule `COc1ccc(S(=O)(=O)C2(C(=O)NO)CCN(Cc3ccc(-c4ccccc4)cc3)CC2)cc1`, the log(10^6/IC50) was 5.52 in experiment [3], 2.88 in experiment [1] and 4.89 in experiment [2].

Regarding `CCC(CC)COc1ccc(S(=O)(=O)C2(C(=O)NO)CCN(Cc3ccccc3)CC2)cc1`, the log(10^6/IC50) was 5.3 in experiment [3], 2.5 in experiment [1] and 4.85 in experiment [2].

With `COc1ccc(S(=O)(=O)C2(C(=O)NO)CCN(Cc3cccc(OC)c3)CC2)cc1`, the figures for the log(10^6/IC50) in experiment [3], in experiment [1] and in experiment [2] were 5.7, 3.28 and 5.05, respectively.

On to `COc1ccc(CCN2CCC(C(=O)NO)(S(=O)(=O)c3ccc(OC)cc3)CC2)cc1`, for which the log(10^6/IC50) in experiment [3] came to 5.7; in experiment [1], 3.18; in experiment [2], 4.47.

In the case of `C#CC[C@](Cc1cccnc1)(C(=O)NO)S(=O)(=O)c1ccc(OC)cc1`, the log(10^6/IC50) worked out at 4.49 in experiment [3], 3.17 in experiment [1] and 4.08 in experiment [2].

Turning to `COc1ccc(S(=O)(=O)[C@](CCC(C)C)(Cc2cccnc2)C(=O)NO)cc1`, the figures for the log(10^6/IC50) in experiment [3] and in experiment [1] were 4.05 and 3.24, respectively.

`COc1ccc(S(=O)(=O)[C@@](C)(CC2CCCCC2)C(=O)NO)cc1`: the log(10^6/IC50) was determined as 4.62 in experiment [3], 3.49 in experiment [1] and 5.05 in experiment [2].

`CCN(CC)CCOc1ccc(C[C@](C)(C(=O)NO)S(=O)(=O)c2ccc(-c3ccco3)cc2)cc1`: the log(10^6/IC50) in experiment [3] came to 5.7; in experiment [1] it was 4.85; in experiment [2], 5.4.

Regarding `COc1ccc(S(=O)(=O)C2(C(=O)NO)CCN(Cc3ccc4ccccc4c3)CC2)cc1`, the log(10^6/IC50) turned out to be 3.43 in experiment [1] and 5.3 in experiment [2].

On to `COc1ccc(S(=O)(=O)C2(C(=O)NO)CCN(Cc3ccc(C)cc3)CC2)cc1`, for which the log(10^6/IC50) in experiment [3] was determined as 5.7; in experiment [1] it was 3.31; in experiment [2] it was 4.77.

For `O=C(NO)C1(S(=O)(=O)c2ccc(OCc3ccccc3)cc2)CCN(Cc2ccccc2)CC1`, the log(10^6/IC50) in experiment [2] came out at 5.52.

Turning to `CCCCOc1ccc(S(=O)(=O)C2(C(=O)NO)CCN(Cc3ccc(OCCN4CCCCC4)cc3)CC2)cc1`, the log(10^6/IC50) in experiment [1] is 2.71; in experiment [2] it was 5.7.

`COc1ccc(CN2CCC(C(=O)NO)(S(=O)(=O)c3ccc(Oc4ccc(Cl)cc4)cc3)CC2)cc1`: the log(10^6/IC50) in experiment [1] was determined as 3.31; in experiment [2], 6.
